From publication PMC5909127, “Optimization of a “bump-and-hole” approach to allele-selective BET bromodomain inhibition” (Chemical Science, 2018)

Key:
[1] = target: WT BET bromodomains (BD1 and BD2 of BRD2, BRD3 and BRD4); assay: competitive AlphaLISA (Bio-JQ1 displacement); assay type: binding, human; details: mean and SD of all somatic bromodomains; active enantiomer concentration
[2] = test system: L/V BET bromodomains (BD1 and BD2 of BRD2, BRD3 and BRD4); assay: competitive AlphaLISA (Bio-JQ1 displacement); assay type: binding, human; details: L/V minus WT
BRD2 BD1 L/V [3] = target: T1, BRD2 BD1 L/V (Homo sapiens, UniProt P25440, L110V); assay: competitive AlphaLISA; assay type: binding
T1 sequence (P25440 71-176 L110V limits assumed): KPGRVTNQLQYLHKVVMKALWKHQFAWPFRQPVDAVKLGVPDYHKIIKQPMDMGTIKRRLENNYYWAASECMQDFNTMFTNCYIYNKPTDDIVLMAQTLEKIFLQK

BRD2 BD2 WT [4] = target: T2, BRD2 BD2 WT (Homo sapiens, UniProt P25440); assay: competitive AlphaLISA; assay type: binding
T2 sequence (P25440 344-455): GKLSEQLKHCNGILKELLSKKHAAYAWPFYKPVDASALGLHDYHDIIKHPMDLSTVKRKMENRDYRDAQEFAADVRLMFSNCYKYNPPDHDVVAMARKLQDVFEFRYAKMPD

BRD2 BD2 L/V [5] = target: T3, BRD2 BD2 L/V (Homo sapiens, UniProt P25440, L383V); assay: competitive AlphaLISA; assay type: binding
T3 sequence (P25440 344-455 L383V): as the sequence (P25440 344-455) above, with L40V counted along it

BRD3 BD1 WT [6] = target: T4, BRD3 BD1 WT (Homo sapiens, UniProt Q15059); assay: competitive AlphaLISA; assay type: binding
T4 sequence (Q15059 24-144): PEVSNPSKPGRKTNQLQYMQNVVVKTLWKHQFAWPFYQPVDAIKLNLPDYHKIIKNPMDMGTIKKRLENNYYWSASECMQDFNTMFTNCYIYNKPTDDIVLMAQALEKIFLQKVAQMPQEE

BRD3 BD1 L/V [7] = target: T5, BRD3 BD1 L/V (Homo sapiens, UniProt Q15059, L70V); assay: competitive AlphaLISA; assay type: binding
T5 sequence (Q15059 24-144 L70V limits assumed): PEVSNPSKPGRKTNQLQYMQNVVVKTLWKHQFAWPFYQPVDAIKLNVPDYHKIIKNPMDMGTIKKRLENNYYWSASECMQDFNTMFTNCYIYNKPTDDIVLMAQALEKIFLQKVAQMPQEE

BRD3 BD2 WT [8] = target: T6, BRD3 BD2 WT (Homo sapiens, UniProt Q15059); assay: competitive AlphaLISA; assay type: binding
T6 sequence (Q15059 306-416): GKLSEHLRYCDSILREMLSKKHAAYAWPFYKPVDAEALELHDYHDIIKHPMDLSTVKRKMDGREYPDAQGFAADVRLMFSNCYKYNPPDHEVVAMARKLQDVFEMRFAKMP

BRD3 BD2 L/V [9] = target: T7, BRD3 BD2 L/V (Homo sapiens, UniProt Q15059, L345V); assay: competitive AlphaLISA; assay type: binding
T7 sequence (Q15059 306-416 L345V limits assumed): as the sequence (Q15059 306-416) above, with L40V counted along it

BRD4 BD1 WT [10] = target: T8, BRD4 BD1 WT (Homo sapiens, UniProt O60885); assay: competitive AlphaLISA; assay type: binding; details: AlphaLISA pIC50 Value BRD4 BD1 WT
BRD4 BD1 L/V [11] = target: T9, BRD4 BD1 L/V (Homo sapiens, UniProt O60885, L94V); assay: competitive AlphaLISA; assay type: binding; details: AlphaLISA pIC50 Value BRD4 BD1 L/V
BRD4 BD2 L/V [12] = target: T10, BRD4 BD2 L/V (Homo sapiens, UniProt O60885, L387V); assay: competitive AlphaLISA; assay type: binding
BRDT BD1 WT = BRDT BD1 WT (Homo sapiens, UniProt Q58F21); assay: competitive AlphaLISA; assay type: binding
BRDT BD1 L/V = BRDT BD1 L/V (Homo sapiens, UniProt Q58F21, L63V); assay: competitive AlphaLISA; assay type: binding
BRDT BD2 WT = BRDT BD2 WT (Homo sapiens, UniProt Q58F21); assay: competitive AlphaLISA; assay type: binding
BRD2 BD1 WT = BRD2 BD1 WT (Homo sapiens, UniProt P25440); assay: ITC; assay type: binding; details: ITC
Sequence of BRD2 BD1 WT (P25440 71-176): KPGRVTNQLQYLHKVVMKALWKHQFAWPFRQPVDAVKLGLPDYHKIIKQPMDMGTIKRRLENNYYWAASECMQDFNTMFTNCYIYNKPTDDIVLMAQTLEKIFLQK

BRD2 BD1 L/V [13] = target: T1, BRD2 BD1 L/V; assay: ITC; assay type: binding
BRD2 BD2 WT [14] = target: T2, BRD2 BD2 WT; assay: ITC; assay type: binding
BRD2 BD2 L/V [15] = target: T3, BRD2 BD2 L/V; assay: ITC; assay type: binding
BRD3 BD1 WT [16] = target: T4, BRD3 BD1 WT; assay: ITC; assay type: binding
BRD3 BD1 L/V [17] = target: T5, BRD3 BD1 L/V; assay: ITC; assay type: binding
BRD3 BD2 WT [18] = target: T6, BRD3 BD2 WT; assay: ITC; assay type: binding
BRD3 BD2 L/V [19] = target: T7, BRD3 BD2 L/V; assay: ITC; assay type: binding
BRD4 BD1 WT [20] = target: T8, BRD4 BD1 WT; assay: ITC; assay type: binding
BRD4 BD1 L/V [21] = target: T9, BRD4 BD1 L/V; assay: ITC; assay type: binding; details: ITC
BRD4 BD2 WT = BRD4 BD2 WT (Homo sapiens, UniProt O60885); assay: ITC; assay type: binding
BRD4 BD2 L/V [22] = target: T10, BRD4 BD2 L/V; assay: ITC; assay type: binding
[23] = target: WT somatic BET bromodomains; assay: ITC; details: mean and SD of all somatic bromodomains
[24] = test system: L/V somatic BET bromodomains; assay: ITC; details: L/V minus WT
in vitro = details: PAMPA, pH 7.4
Plasma Half-life = details: BALB/c, mouse, pH 7.4
Intrinsic Clearance = details: mouse liver microsomes
BRD2: WT/WT = BRD2: WT/WT (Homo sapiens, UniProt P25440); assay: ITC, BRD2 tandem construct
Sequence of BRD2: WT/WT (P25440 73-455): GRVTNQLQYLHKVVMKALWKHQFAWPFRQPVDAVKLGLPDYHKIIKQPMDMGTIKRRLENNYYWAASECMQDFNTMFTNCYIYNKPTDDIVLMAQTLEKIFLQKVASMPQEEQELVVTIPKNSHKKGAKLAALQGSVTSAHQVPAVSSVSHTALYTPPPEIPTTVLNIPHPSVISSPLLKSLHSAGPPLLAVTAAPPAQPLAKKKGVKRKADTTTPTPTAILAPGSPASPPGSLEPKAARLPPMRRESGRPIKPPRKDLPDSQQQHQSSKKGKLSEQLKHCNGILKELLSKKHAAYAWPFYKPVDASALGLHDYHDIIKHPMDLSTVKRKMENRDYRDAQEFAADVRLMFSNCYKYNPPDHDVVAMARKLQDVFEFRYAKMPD
BRD2: LV/WT = BRD2: LV/WT (Homo sapiens, UniProt P25440, L110V); assay: ITC, BRD2 tandem construct
Sequence of BRD2: LV/WT (P25440 73-455 L110V limits assumed): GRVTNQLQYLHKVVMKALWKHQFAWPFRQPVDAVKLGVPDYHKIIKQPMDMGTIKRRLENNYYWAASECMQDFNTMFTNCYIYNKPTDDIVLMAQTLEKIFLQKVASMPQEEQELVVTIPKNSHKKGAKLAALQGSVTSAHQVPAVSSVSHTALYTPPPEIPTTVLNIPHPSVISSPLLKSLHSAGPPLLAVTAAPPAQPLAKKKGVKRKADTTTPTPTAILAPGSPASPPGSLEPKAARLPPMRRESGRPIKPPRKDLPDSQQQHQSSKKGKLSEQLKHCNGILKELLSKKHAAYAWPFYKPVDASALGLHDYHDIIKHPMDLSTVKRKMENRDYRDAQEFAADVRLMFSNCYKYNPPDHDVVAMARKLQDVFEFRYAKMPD
BRD2: WT/LV = BRD2: WT/LV (Homo sapiens, UniProt P25440, L383V); assay: ITC, BRD2 tandem construct
Sequence of BRD2: WT/LV (P25440 73-455 L383V): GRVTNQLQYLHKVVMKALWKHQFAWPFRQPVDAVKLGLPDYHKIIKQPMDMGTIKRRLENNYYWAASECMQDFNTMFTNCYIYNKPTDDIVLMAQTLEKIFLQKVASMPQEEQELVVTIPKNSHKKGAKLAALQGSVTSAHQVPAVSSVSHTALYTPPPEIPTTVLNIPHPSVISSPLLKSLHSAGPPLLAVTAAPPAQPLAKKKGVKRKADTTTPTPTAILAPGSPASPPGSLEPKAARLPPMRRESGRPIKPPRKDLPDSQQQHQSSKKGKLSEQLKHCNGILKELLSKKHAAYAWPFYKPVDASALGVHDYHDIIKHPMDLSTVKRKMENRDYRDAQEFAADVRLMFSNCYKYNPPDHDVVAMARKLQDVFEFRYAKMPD
BRD2: LV/LV = BRD2: LV/LV (Homo sapiens, UniProt P25440, L110V/L383V); assay: ITC, BRD2 tandem construct
Sequence of BRD2: LV/LV (P25440 73-455 L110V/L383V limits assumed): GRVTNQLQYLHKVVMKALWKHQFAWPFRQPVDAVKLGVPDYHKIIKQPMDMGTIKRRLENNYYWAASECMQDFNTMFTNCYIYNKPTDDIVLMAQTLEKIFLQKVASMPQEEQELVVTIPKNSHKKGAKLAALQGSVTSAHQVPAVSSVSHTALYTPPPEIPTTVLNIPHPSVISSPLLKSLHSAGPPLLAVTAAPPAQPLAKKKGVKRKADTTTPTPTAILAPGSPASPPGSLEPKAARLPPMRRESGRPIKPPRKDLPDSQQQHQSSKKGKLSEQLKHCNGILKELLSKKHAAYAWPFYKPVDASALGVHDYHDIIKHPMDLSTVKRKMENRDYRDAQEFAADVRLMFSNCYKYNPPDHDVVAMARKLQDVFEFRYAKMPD

Compound: CC[C@@H](C(=O)OC)[C@@H]1N=C(c2ccc(Cl)cc2)c2cc(OC)ccc2-n2c(C)nnc21 (relative stereo) [Compound 4]
- AlphaLISA pIC50 ± SD WT [1]: 5.0 ± 0.1
- AlphaLISA pIC50 ± SD Δ [2]: 1.7 ± 0.2
- IC50 (BRD2 BD1 L/V [3]): 316 nM
- IC50 (BRD2 BD2 WT [4]): 10000 nM
- IC50 (BRD2 BD2 L/V [5]): 158 nM
- IC50 (BRD3 BD1 WT [6]): 6310 nM
- IC50 (BRD3 BD1 L/V [7]): 100 nM
- IC50 (BRD3 BD2 WT [8]): 10000 nM
- IC50 (BRD3 BD2 L/V [9]): 100 nM
- IC50 (BRD4 BD1 WT [10]): 7940 nM
- IC50 (BRD4 BD1 L/V [11]): 251 nM
- IC50 (BRD4 BD2 L/V [12]): 251 nM
- IC50 (BRDT BD1 WT): 15800 nM
- IC50 (BRDT BD1 L/V): 501 nM
- IC50 (BRDT BD2 WT): 15800 nM
- ΔH BRD2 BD1 WT (BRD2 BD1 WT): -5.3 kcal/mol
- Kd (BRD2 BD1 L/V [13]): 240 nM
- ΔH BRD2 BD1 L/V (BRD2 BD1 L/V [13]; ITC): -12.6 kcal/mol
- Kd (BRD2 BD2 WT [14]): 3300 nM
- ΔH BRD2 BD2 WT (BRD2 BD2 WT [14]; ITC): -1.2 kcal/mol
- N BRD2 BD2 WT (BRD2 BD2 WT [14]; ITC stoichiometry): 0.91
- Kd (BRD2 BD2 L/V [15]): 50 nM
- ΔH BRD2 BD2 L/V (BRD2 BD2 L/V [15]; ITC): -8.5 kcal/mol
- Kd (BRD3 BD1 WT [16]): 3300 nM
- ΔH BRD3 BD1 WT (BRD3 BD1 WT [16]; ITC): -4.9 kcal/mol
- N BRD3 BD1 WT (BRD3 BD1 WT [16]; ITC stoichiometry): 0.81
- Kd (BRD3 BD1 L/V [17]): 80 nM
- ΔH BRD3 BD1 L/V (BRD3 BD1 L/V [17]; ITC): -14.1 kcal/mol
- ΔH BRD3 BD2 WT (BRD3 BD2 WT [18]; ITC): -3.8 kcal/mol
- N BRD3 BD2 WT (BRD3 BD2 WT [18]; ITC stoichiometry): 0.85
- Kd (BRD3 BD2 L/V [19]): 100 nM
- ΔH BRD3 BD2 L/V (BRD3 BD2 L/V [19]; ITC): -9.5 kcal/mol
- Kd (BRD4 BD1 WT [20]): 2500 nM
- ΔH BRD4 BD1 WT (BRD4 BD1 WT [20]; ITC): -2.6 kcal/mol
- N BRD4 BD1 WT (BRD4 BD1 WT [20]; ITC stoichiometry): 0.99
- ΔH BRD4 BD1 L/V (BRD4 BD1 L/V [21]): -10.3 kcal/mol
- Kd (BRD4 BD1 L/V [21]; Kd BRD4 BD1 L/V, 30°C): 160 nM
- Kd (BRD4 BD2 WT): 35000 nM
- ΔH BRD4 BD2 WT (BRD4 BD2 WT; ITC): -3.4 kcal/mol
- Kd (BRD4 BD2 L/V [22]): 330 nM
- ΔH BRD4 BD2 L/V (BRD4 BD2 L/V [22]; ITC): -7.9 kcal/mol
- ITC pKd ± SD WT [23]: 5.1 ± 0.5
- ITC pKd ± SD Δ [24]: 1.8 ± 0.4
- Papp (in vitro): 15.3 ×10⁻⁶ cm/s
- half-life at 50 µM (Plasma Half-life): > 3 h
- CL int (Intrinsic Clearance): 1.5 ml min^–1 g^–1
- Kd (BRD2: WT/WT): 3800 ± 1100 nM
- Kd (BRD2: LV/WT): 570 ± 50 nM
- Kd (BRD2: WT/LV): 620 ± 110 nM
- Kd (BRD2: LV/LV): 140 ± 10 nM
